# Test results reported in patent US20240262808A1, “XANTHINE OXIDASE INHIBITOR” (JIANGSU ATOM BIOSCIENCE AND PHARMACEUTICAL CO., LTD., priority 2021, published 2024).
# Experiments:
# Xanthine Oxidase (XO) = target: T1, Xanthine Oxidase (XO) (Bos taurus, UniProt P80457); test: Xanthine oxidase activity inhibition test (XO/HRP double enzyme coupling, Ampliflu Red fluorescence); type: biochemical; conditions: 30 min preincubation and 30 min reaction at 30° C., pH 7.5; read-out: Xanthine oxidase inhibitor activity IC50
# T1 construct: purchased Sigma-Aldrich Co., LLC
# Protocol: A double enzyme coupling reaction of Xanthine Oxidase (XO) and Horseradish Peroxidase (HRP) and their substrates was used to test the activity inhibition of xanthine oxidase. First, xanthine oxidase oxidized hypoxanthine to produce xanthine and hydrogen peroxide, and further oxidized xanthine to produce uric acid and hydrogen peroxide. […] The fluorescence intensity of resorufin was determined by fluorescence enzyme spectrometer in direct proportion to xanthine oxidase activity.
# In 96-well polypropylene reaction plate, the test compound was diluted into a 200-fold concentration of solution with DMSO through 2.5-fold serial dilution, and further diluted in ultra-pure water to obtain a series of 3-fold concentration of diluted solution.
# Reaction solution A: 6 mU/mL xanthine oxidase solution was prepared in 0.1M Tris-HCl (pH7.5) buffer solution.
# Reaction solution B: a mixture of 0.6 U/mL horseradish peroxidase solution, 0.15 mM Ampliflu Red and 0.3 mM hypoxanthine in 0.1M Tris-HCl (pH 7.5) buffer solution. The solution was protected from light at 4° C. and was prepared when it was ready for use.
# 9 μL reaction solution A was mixed with 3-fold concentration serial dilution solution of 9 μL test compound in a 96-well test plate, placed on a flat plate oscillator, and mixed at 30° C. at 100 rpm for 30 min. Then 9 μL reaction solution B was added. The enzyme reaction was carried out at 30° C. for 30 minutes. The fluorescence intensity at excitation light 530 nm and emission light 590 nm was measured by a microplate reader. The fluorescence intensity of the control without xanthine oxidase was 0%, and that of the control without the test compound was 100%.
# [1] = system: rats with hyperuricemia induced by potassium oxonate; test: Treatment of hyperuricemia in rats induced by potassium oxonate, serum uric acid; type: in vivo, SD rat; conditions: for Uric acid 1 h: 1 h after potassium oxonate; for Uric acid 3 h: 3 h after potassium oxonate; for Uric acid 5 h: 5 h after potassium oxonate; for Uric acid 0 h: before potassium oxonate injection
# Protocol: Compounds 15, 24 and 38 were white powder, and compound 57 was light yellow powder, which was ground with 0.5% CMC-Na before use and prepared into suspension with corresponding concentrations (0.2 and 0.4 mg/mL) for gavage.
# SD rat, SPF grade, male, weighing 180-220 g, purchased from Shanghai Slake Experimental Animal Co., Ltd., production license number: SCXK (Hu) 2017-0005, quality certificate number: 20170005050604.
# 72 SD rats, male, weighed about 200-230 g after one week of acclimatization. […] Drugs for each group were prepared into suspension with corresponding concentration, and the administration volume was 0.5 mL/100 g.
# After purchased and fed for acclimatization, the rats in each group were fasted for 12 h, and the model was established by intraperitoneal injection with potassium oxonate at the dose of 300 mg/kg, and each of the test drug groups were administrated once by gavage after model establishment. Blood samples were collected from posterior orbital venous plexus before and 1, 3 and 5 h after potassium oxonate injection, centrifugated at 3500 rpm for 10 min, and 30 μL serum was taken to determine uric acid levels at each time point.
# Then in two consecutive days, rat models were established with potassium oxonate by intraperitoneal injection at a dose of 300 mg/kg every day, and each test drug group was administrated once by gavage after model establishment. On the third day of administration, the rats were fasted for 12 h, and with the same test method on the first day, blood samples were collected from the posterior orbital venous plexus before and 1, 3 and 5 h after potassium oxonate injection, centrifuged at 3500 rpm for 10 min, and 30 μL serum was taken to determine the uric acid level at each time point.
# The measurement data of each experiment were expressed as (mean)±s (standard deviation). ANOVA-Dunnett T test was used to investigate the significance between groups, and P<0.05 was used as a significant index, P<0.01 was used as a very significant index.
# patients with gout = conditions: cited from earlier work
# [2] = 1-day administration, 1 mg/kg gavage
# [3] = 1-day administration, 2 mg/kg gavage
# [4] = 1-day administration, 1 and 2 mg/kg groups, at 1, 3 and 5 h after model establishment
# [5] = 3-day administration, 1 mg/kg gavage
# [6] = 3-day administration, 2 mg/kg gavage
# [7] = 3-day administration, 1 and 2 mg/kg groups, at 1, 3 and 5 h after model establishment
# T1 sequence (P80457 2-1332 limits assumed): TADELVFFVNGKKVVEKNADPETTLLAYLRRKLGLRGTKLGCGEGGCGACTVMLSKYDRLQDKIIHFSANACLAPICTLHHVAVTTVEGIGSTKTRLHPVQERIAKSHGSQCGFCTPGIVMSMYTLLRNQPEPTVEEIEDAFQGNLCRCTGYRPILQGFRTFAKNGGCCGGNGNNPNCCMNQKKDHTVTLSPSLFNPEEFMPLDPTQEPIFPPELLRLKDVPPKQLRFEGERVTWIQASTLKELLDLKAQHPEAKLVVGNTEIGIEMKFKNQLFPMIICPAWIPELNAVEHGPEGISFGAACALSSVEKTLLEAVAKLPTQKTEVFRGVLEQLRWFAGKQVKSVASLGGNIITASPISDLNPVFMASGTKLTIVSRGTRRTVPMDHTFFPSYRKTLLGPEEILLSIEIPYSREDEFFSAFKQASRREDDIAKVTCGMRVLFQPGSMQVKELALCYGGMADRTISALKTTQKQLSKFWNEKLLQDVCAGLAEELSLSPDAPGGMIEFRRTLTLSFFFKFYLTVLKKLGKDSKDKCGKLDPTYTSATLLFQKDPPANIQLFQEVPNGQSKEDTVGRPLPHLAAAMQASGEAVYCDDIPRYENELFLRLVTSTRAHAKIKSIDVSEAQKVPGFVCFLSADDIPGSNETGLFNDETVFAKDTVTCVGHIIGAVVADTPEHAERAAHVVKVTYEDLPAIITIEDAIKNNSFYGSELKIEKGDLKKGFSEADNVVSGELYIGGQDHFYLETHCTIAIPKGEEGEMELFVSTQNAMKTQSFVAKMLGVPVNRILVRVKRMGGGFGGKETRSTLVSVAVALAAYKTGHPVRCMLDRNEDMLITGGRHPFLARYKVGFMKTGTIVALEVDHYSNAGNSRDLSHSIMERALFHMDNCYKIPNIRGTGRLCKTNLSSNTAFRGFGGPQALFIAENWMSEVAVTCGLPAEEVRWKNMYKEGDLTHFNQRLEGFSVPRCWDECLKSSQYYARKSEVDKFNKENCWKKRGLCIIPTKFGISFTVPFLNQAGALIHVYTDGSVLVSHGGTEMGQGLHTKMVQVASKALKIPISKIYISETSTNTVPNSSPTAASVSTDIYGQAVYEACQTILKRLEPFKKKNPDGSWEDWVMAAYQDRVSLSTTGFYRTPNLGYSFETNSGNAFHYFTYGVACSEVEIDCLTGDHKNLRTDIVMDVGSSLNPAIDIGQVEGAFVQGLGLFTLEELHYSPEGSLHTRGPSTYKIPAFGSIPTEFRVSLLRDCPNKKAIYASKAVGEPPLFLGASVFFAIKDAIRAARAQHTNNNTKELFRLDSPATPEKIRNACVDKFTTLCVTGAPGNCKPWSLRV
compound,measurement,setting,value
"N#Cc1cn(C2CCC2)c2ccc(-n3ncc(C(=O)O)n3)cc12 [Compound 47, 2-(3-cyano-1-cyclobutyl-1H-indole-5-yl)-2H-1,2,3-triazole-4-formic acid]",IC50,Xanthine Oxidase (XO),1.71 nM
"N#Cc1cn(C2CCOC2)c2ccc(-n3ncc(C(=O)O)n3)cc12 (stereo not drawn) [Compound 44, 2-[3-cyano-1-(tetrahydrofuran-3-yl)-1H-indole-5-yl]-2H-1,2,3-triazole-4-formic acid]",IC50,Xanthine Oxidase (XO),9.58 nM
"CC(C)n1nc(C#N)c2cc(-c3cc(C(=O)O)ccn3)ccc21 [Compound 57, 2-(3-cyano-1-isopropyl-1H-indazole-5-yl) isonicotinic acid]",IC50,Xanthine Oxidase (XO),2.89 nM
same,Uric acid 1 h,[1]; [2],74.7 ± 11.3 µmol/L
same,Uric acid 3 h,[1]; [2],99.5 ± 12.4 µmol/L
same,Uric acid 5 h,[1]; [2],85.7 ± 8.5 µmol/L
same,Uric acid 0 h,[1]; [2],71.2 ± 8.3 µmol/L
same,Uric acid 1 h,[1]; [3],64.0 ± 13.5 µmol/L
same,Uric acid 3 h,[1]; [3],107.4 ± 12.5 µmol/L
same,Uric acid 5 h,[1]; [3],94.8 ± 6.4 µmol/L
same,Uric acid 0 h,[1]; [3],74.5 ± 8.9 µmol/L
same,Serum uric acid level compared with model group,[1]; [4],significantly decreased
same,Uric acid 1 h,[1]; [5],57.5 ± 9.3 µmol/L
same,Uric acid 3 h,[1]; [5],75.3 ± 6.3 µmol/L
same,Uric acid 5 h,[1]; [5],90.0 ± 5.9 µmol/L
same,Uric acid 0 h,[1]; [5],70.8 ± 8.6 µmol/L
same,Uric acid 1 h,[1]; [6],63.6 ± 11.7 µmol/L
same,Uric acid 3 h,[1]; [6],75.2 ± 16.9 µmol/L
same,Uric acid 5 h,[1]; [6],81.1 ± 8.0 µmol/L
same,Uric acid 0 h,[1]; [6],72.7 ± 15.6 µmol/L
same,Serum uric acid level compared with model group,"[1]; 3-day administration, 1 and 2 mg/kg groups, at 1 and 3 h after model establishment, P<0.01",significantly decreased
"CC(C)n1cc(C#N)c2cc(-n3ncc(C(=O)O)n3)ccc21 [Compound 15, 2-(3-cyano-1-isopropyl-1H-indole-5-yl)-2H-1,2,3-triazole-4-formic acid]",IC50,Xanthine Oxidase (XO),1.84 nM
same,Uric acid 1 h,[1]; [2],104.3 ± 20.3 µmol/L
same,Uric acid 3 h,[1]; [2],121.6 ± 12.2 µmol/L
same,Uric acid 5 h,[1]; [2],118.4 ± 15.3 µmol/L
same,Uric acid 0 h,[1]; [2],72.0 ± 6.7 µmol/L
same,Uric acid 1 h,[1]; [3],98.1 ± 6.3 µmol/L
same,Uric acid 3 h,[1]; [3],130.7 ± 11.5 µmol/L
same,Uric acid 5 h,[1]; [3],109.7 ± 22.5 µmol/L
same,Uric acid 0 h,[1]; [3],74.1 ± 10.3 µmol/L
same,Serum uric acid level compared with model group,"[1]; 1-day administration, 2 mg/kg group, at 1 h after model establishment, P<0.01",significantly decreased
same,Uric acid 1 h,[1]; [5],78.4 ± 12.1 µmol/L
same,Uric acid 3 h,[1]; [5],166.1 ± 37.5 µmol/L
same,Uric acid 5 h,[1]; [5],100.0 ± 12.5 µmol/L
same,Uric acid 0 h,[1]; [5],70.9 ± 12.8 µmol/L
same,Uric acid 1 h,[1]; [6],88.2 ± 21.3 µmol/L
same,Uric acid 3 h,[1]; [6],139.8 ± 32.7 µmol/L
same,Uric acid 5 h,[1]; [6],97.6 ± 21.0 µmol/L
same,Uric acid 0 h,[1]; [6],64.1 ± 4.8 µmol/L
"N#Cc1nn(C2CC2)c2ccc(-n3cc(C(=O)O)cn3)cc12 [Compound 50, 1-(3-cyano-1-cyclopropyl-1H-indazole-5-yl)-1H-pyrazole-4-formic acid]",IC50,Xanthine Oxidase (XO),9.89 nM
"CCCn1nc(C#N)c2cc(-n3cc(C(=O)O)cn3)ccc21 [Compound 35, 1-(3-cyano-1-propyl-1H-indazole-5-yl)-1H-pyrazole-4-formic acid]",IC50,Xanthine Oxidase (XO),11.8 nM
"CC(C)n1nc(C#N)c2cc(-c3ccc(C(=O)O)s3)ccc21 [Compound 28, 2-(3-cyano-1-isopropyl-1H-indazole-5-yl)thiophen-2-formic acid]",IC50,Xanthine Oxidase (XO),7.91 nM
"Cc1nc(-c2ccc(OCC(C)C)c(C#N)c2)sc1C(=O)O [Febuxostat, reference compound]","All-cause mortality, HR","patients with gout; febuxostat vs allopurinol group, 95% CI 1.01-1.47",1.22
same,"Cardiovascular mortality, HR","patients with gout; febuxostat vs allopurinol group, 95% CI 1.03-1.73",1.34
same,"Overall risk of adverse cardiovascular events, HR","patients with gout; febuxostat vs allopurinol group, average of 32 months of treatment, 95% CI 0.87-1.23",1.03
same,"Sudden cardiac death, share of group","patients with gout; patients with gout, per treatment group",2.7%
same,Uric acid 1 h,[1]; [2],76.4 ± 11.4 µmol/L
same,Uric acid 3 h,[1]; [2],91.3 ± 13.3 µmol/L
same,Uric acid 5 h,[1]; [2],65.7 ± 12.4 µmol/L
same,Uric acid 0 h,[1]; [2],81.3 ± 7.8 µmol/L
same,Uric acid 1 h,[1]; [3],59.7 ± 6.6 µmol/L
same,Uric acid 3 h,[1]; [3],60.7 ± 15.0 µmol/L
same,Uric acid 0 h,[1]; [3],67.2 ± 1.9 µmol/L
same,Serum uric acid level compared with model group,[1]; [4],significantly decreased
same,Uric acid 1 h,[1]; [5],53.0 ± 12.0 µmol/L
same,Uric acid 3 h,[1]; [5],71.4 ± 23.5 µmol/L
same,Uric acid 5 h,[1]; [5],61.1 ± 8.1 µmol/L
same,Uric acid 0 h,[1]; [5],66.0 ± 11.3 µmol/L
same,Uric acid 1 h,[1]; [6],47.5 ± 7.9 µmol/L
same,Uric acid 3 h,[1]; [6],51.8 ± 6.7 µmol/L
same,Uric acid 0 h,[1]; [6],65.5 ± 8.8 µmol/L
same,Serum uric acid level compared with model group,[1]; [7],significantly decreased
"CC(C)n1nc(C#N)c2cc(-n3ncc(C(=O)O)n3)ccc21 [Compound 24, 2-(3-cyano-1-isopropyl-1H-indazole-5-yl)-2H-1,2,3-triazole-4-formic acid]",IC50,Xanthine Oxidase (XO),3.65 nM
same,Uric acid 1 h,[1]; [2],96.2 ± 9.3 µmol/L
same,Uric acid 3 h,[1]; [2],131.0 ± 18.9 µmol/L
same,Uric acid 5 h,[1]; [2],96.8 ± 13.6 µmol/L
same,Uric acid 0 h,[1]; [2],65.3 ± 5.8 µmol/L
same,Uric acid 1 h,[1]; [3],96.8 ± 5.4 µmol/L
same,Uric acid 3 h,[1]; [3],126.4 ± 14.4 µmol/L
same,Uric acid 5 h,[1]; [3],105.1 ± 16.6 µmol/L
same,Uric acid 0 h,[1]; [3],77.6 ± 9.2 µmol/L
same,Serum uric acid level compared with model group,"[1]; 1-day administration, 1 and 2 mg/kg groups, at 1 h after model establishment, P<0.01",significantly decreased
same,Uric acid 1 h,[1]; [5],105.5 ± 12.7 µmol/L
same,Uric acid 3 h,[1]; [5],155.3 ± 38.2 µmol/L
same,Uric acid 5 h,[1]; [5],102.6 ± 8.3 µmol/L
same,Uric acid 0 h,[1]; [5],87.8 ± 16.2 µmol/L
same,Uric acid 1 h,[1]; [6],97.2 ± 27.5 µmol/L
same,Uric acid 3 h,[1]; [6],104.0 ± 5.8 µmol/L
same,Uric acid 5 h,[1]; [6],97.0 ± 14.6 µmol/L
same,Uric acid 0 h,[1]; [6],90.4 ± 9.1 µmol/L
same,Serum uric acid level compared with model group,"[1]; 3-day administration, 2 mg/kg group, at 3 h after model establishment, P<0.01",significantly decreased
"N#Cc1cn(CC2CC2)c2ccc(-n3ncc(C(=O)O)n3)cc12 [Compound 41, 2-(3-cyano-1-cyclopropylmethyl-1H-indole-5-yl)-2H-1,2,3-triazole-4-formic acid]",IC50,Xanthine Oxidase (XO),1.72 nM
"CC(C)Cn1nc(C#N)c2cc(-n3cc(C(=O)O)cn3)ccc21 [Compound 32, 1-(3-cyano-1-isobutyl-1H-indazole-5-yl)-1H-pyrazole-4-formic acid]",IC50,Xanthine Oxidase (XO),5.11 nM
"CC(C)n1nc(C#N)c2cc(-n3cc(C(=O)O)cn3)ccc21 [Compound 38, 1-(3-cyano-1-isopropyl-1H-indazole-5-yl)-1H-pyrazole-4-formic acid]",IC50,Xanthine Oxidase (XO),3.24 nM
same,Uric acid 1 h,[1]; [2],70.6 ± 7.7 µmol/L
same,Uric acid 3 h,[1]; [2],74.6 ± 19.6 µmol/L
same,Uric acid 5 h,[1]; [2],64.3 ± 10.6 µmol/L
same,Uric acid 0 h,[1]; [2],75.6 ± 6.8 µmol/L
same,Uric acid 1 h,[1]; [3],66.5 ± 7.5 µmol/L
same,Uric acid 3 h,[1]; [3],77.4 ± 9.2 µmol/L
same,Uric acid 5 h,[1]; [3],56.8 ± 4.0 µmol/L
same,Uric acid 0 h,[1]; [3],73.1 ± 6.7 µmol/L
same,Serum uric acid level compared with model group,[1]; [4],significantly decreased
same,Uric acid 1 h,[1]; [5],62.1 ± 14.1 µmol/L
same,Uric acid 3 h,[1]; [5],69.4 ± 16.1 µmol/L
same,Uric acid 5 h,[1]; [5],55.1 ± 5.8 µmol/L
same,Uric acid 0 h,[1]; [5],61.0 ± 5.7 µmol/L
same,Uric acid 1 h,[1]; [6],54.4 ± 5.1 µmol/L
same,Uric acid 3 h,[1]; [6],73.1 ± 9.4 µmol/L
same,Uric acid 5 h,[1]; [6],58.1 ± 9.6 µmol/L
same,Uric acid 0 h,[1]; [6],60.9 ± 8.1 µmol/L
same,Serum uric acid level compared with model group,[1]; [7],significantly decreased
